Data on 15 compounds can be found in patent US10757937B2, “Sulfonamides that activate ABA receptors” (The Regents of the University of California, priority 2014, dated 2020).

One test deals with T1, PYR1 (Arabidopsis thaliana, UniProt O49686).
T1 construct: 6X-His; made in house; host or cells: E. coli BL21[DE3]pLysS
T1 sequence (O49686 1-191): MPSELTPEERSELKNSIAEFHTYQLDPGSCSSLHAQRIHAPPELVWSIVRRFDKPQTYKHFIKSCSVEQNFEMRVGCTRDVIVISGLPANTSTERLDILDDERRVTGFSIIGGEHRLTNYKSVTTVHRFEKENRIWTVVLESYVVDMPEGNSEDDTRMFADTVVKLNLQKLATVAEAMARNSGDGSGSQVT
T1 sequence (Q9CAJ0 23-511 partner): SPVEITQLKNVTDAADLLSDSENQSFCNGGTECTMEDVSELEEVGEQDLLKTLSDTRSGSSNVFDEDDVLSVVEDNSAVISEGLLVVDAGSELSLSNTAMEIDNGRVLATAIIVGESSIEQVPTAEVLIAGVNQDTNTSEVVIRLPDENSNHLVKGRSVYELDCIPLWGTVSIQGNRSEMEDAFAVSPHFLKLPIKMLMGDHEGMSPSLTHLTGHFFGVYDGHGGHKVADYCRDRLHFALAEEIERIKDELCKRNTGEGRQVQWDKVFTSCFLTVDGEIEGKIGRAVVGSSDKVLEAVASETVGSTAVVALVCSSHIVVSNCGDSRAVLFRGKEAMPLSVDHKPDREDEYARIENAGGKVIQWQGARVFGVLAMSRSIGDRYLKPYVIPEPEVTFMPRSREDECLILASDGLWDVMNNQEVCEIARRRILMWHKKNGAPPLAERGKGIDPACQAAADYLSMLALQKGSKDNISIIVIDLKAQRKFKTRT
The test is described as follows: receptor-mediated PP2C (HAB1) inhibition in vitro assay. The format is biochemical. The following applies: for pIC50: Table VII, read-out: PP2C Dose Curves PYR1 (IC50); for remaining activity at 50 µM: 50 uM of the test compound; for IC50: Table XII-B, calculated from dose curves, read-out: PP2C Activity (IC50 in uM) PYR1. Put shortly: (§1)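 His-tagged receptors (MBP fusion for PYL11) at 2:1 ratio to 50 nM GST-HAB1 in 100 mM Tris-OAc pH 7.9, 100 mM NaCl, 1 mM MnCl2; 4-methylumbelliferyl-phosphate fluorogenic substrate. Compounds at 50 uM (ABA 10 uM); IC50 from dose curves for selected compounds.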

Another test deals with T2, PYL1 (Arabidopsis thaliana, UniProt Q8VZS8).
T2 construct: 6X-His; made in house; host or cells: E. coli BL21[DE3]pLysS
T2 sequence (Q8VZS8 1-221): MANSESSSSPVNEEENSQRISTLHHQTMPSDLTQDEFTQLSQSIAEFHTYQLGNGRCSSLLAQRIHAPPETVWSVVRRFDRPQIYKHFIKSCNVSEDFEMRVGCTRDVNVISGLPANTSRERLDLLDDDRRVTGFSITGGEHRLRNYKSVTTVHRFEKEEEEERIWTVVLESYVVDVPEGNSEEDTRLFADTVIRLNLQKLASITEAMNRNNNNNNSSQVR
T2 sequence (Q9CAJ0 23-511 partner): T1 sequence (Q9CAJ0 23-511 partner)
Described as above. Type of test: biochemical. The following applies: for pIC50: Table VII, read-out: PP2C Dose Curves PYL1 (IC50); for remaining activity at 50 µM: 50 uM of the test compound; for IC50: Table XII-B, calculated from dose curves, read-out: PP2C Activity (IC50 in uM) PYL1. The procedure, abridged: as §1

pIC50: −log10 of the molar value. Read-outs that look alike come from different tables or passages of the source.

For `CC1=CC(=O)CC(C)(C)[C@@]1(O)/C=C/C(C)=C\C(=O)O` [ABA, Abscisic acid, reference compound], the “PP2C Activity PYR1” value at PYR1 (ABA (10 μM)) is given as 6.0. At PYL1 (ABA (10 μM)), the “PP2C Activity PYL1” value is recorded as 5.9.

The pIC50 is the IC50 on a negative log10 scale, so that one unit is a factor of ten. As to `CCC(CC)(C(=O)NS(=O)(=O)Cc1ccc([N+](=O)[O-])cc1)c1ccccc1` [Compound 19], the pIC50 on PYR1 and at PYL1 was < 4.30 throughout.

Regarding `N#Cc1ccc(CS(=O)(=O)NC(=O)C2(c3ccc(F)cc3)CCCC2)cc1` [Compound 24], the pIC50 at PYR1 and on PYL1 was < 4.30 in each case.

As usually defined, the remaining activity is the signal under treatment as a percentage of the control signal. The IC50 is the concentration needed to halve the response being measured. In the case of `O=C(NS(=O)(=O)Cc1ccc([N+](=O)[O-])cc1)C1(c2ccccc2)CCCCC1` [Compound 63], on PYR1, the remaining activity at 50 µM was determined as 101% and the IC50 was > 50 µM. For the same compound, at PYL1, the remaining activity at 50 µM was 101% and the half-maximal inhibitory concentration (IC50) is > 50 µM.

Consider `O=C(NS(=O)(=O)Cc1ccc(F)cc1)C1(c2ccccc2)CCCCC1` [Compound 64], for which the remaining activity at 50 µM at PYR1 amounted to 98.4%; at PYL1, 102%. Besides, the IC50 on PYR1 and at PYL1 was > 50 µM throughout.

Regarding `CC(C)COC(=O)NS(=O)(=O)Cc1ccc(C#N)cc1` [Compound 65, 2-Methylpropyl N-[(4-cyanophenyl)methanesulfonyl]carbamate], on PYR1, the remaining activity at 50 µM came to 96.2% and the IC50 is > 50 µM. Besides, at PYL1, the remaining activity at 50 µM was 91.7% and the IC50 was > 50 µM.

Regarding `CC1CCC(C(=O)NS(=O)(=O)Cc2ccc(C#N)cc2)(c2ccc(F)cc2)CC1` (stereo not drawn) [Compound 67, N-[(4-Cyanophenyl)methanesulfonyl]-1-(4-fluorophenyl)-4-methylcyclohexane-1-carboxamide], at PYR1, the remaining activity at 50 µM was 99.6% and the IC50 was > 50 µM. For the same compound, on PYL1, the remaining activity at 50 µM turned out to be 98.3% and the IC50 was > 50 µM.

For `CC1(C)CCC(C(=O)NS(=O)(=O)Cc2ccc(C#N)cc2)(c2ccc(F)cc2)CC1` [Compound 68, N-[(4-Cyanophenyl)methanesulfonyl]-1-(4-fluorophenyl)-4,4-dimethylcyclohexane-1-carboxamide], at PYR1, the remaining activity at 50 µM is 94.4% and the IC50 is > 50 µM. Besides, on PYL1, the remaining activity at 50 µM was determined as 96% and the IC50 is > 50 µM.

As for `N#Cc1ccc(CS(=O)(=O)NC(=O)C2(c3ccccc3)CCCCC2)cc1` [Compound 69, N-[(4-Cyanophenyl)methanesulfonyl]-1-phenylcyclohexane-1-carboxamide], at PYR1, the remaining activity at 50 µM is 96% and the IC50 was > 50 µM. At PYL1, the remaining activity at 50 µM stood at 98.4% and the half-maximal inhibitory concentration (IC50) is > 50 µM.

On to `N#Cc1ccc(CS(=O)(=O)NC(=O)C(c2ccccc2)c2ccccc2)cc1` [Compound 71, N-[(4-Cyanophenyl)methanesulfonyl]-2,2-diphenylacetamide], for which, at PYR1, the remaining activity at 50 µM was 97.9% and the concentration for half-maximal inhibition (IC50) is > 50 µM. Further, on PYL1, the remaining activity at 50 µM amounted to 93.8% and the IC50 is > 50 µM.

`N#Cc1ccc(CS(=O)(=O)NC(=O)C(c2ccc(F)cc2)c2ccc(F)cc2)cc1` [Compound 72, N-[(4-Cyanophenyl)methanesulfonyl]-2,2-bis(4-fluorophenyl)acetamide]: on PYR1, the remaining activity at 50 µM was determined as 93.9% and the IC50 is > 50 µM. Further, at PYL1, the remaining activity at 50 µM worked out at 94.2% and the IC50 was > 50 µM.

For the compound `N#Cc1ccc(CS(=O)(=O)NC(=O)C(C2CCCCC2)C2CCCCC2)cc1` [Compound 73, N-[(4-Cyanophenyl)methanesulfonyl]-2,2-cyclohexylacetamide], on PYR1, the remaining activity at 50 µM was 91.6% and the IC50 is > 50 µM. Moreover, on PYL1, the remaining activity at 50 µM was found to be 95.5% and the IC50 is > 50 µM.

In the case of `N#Cc1ccc(CS(=O)(=O)NC(=O)C2(c3cccs3)CCCCC2)cc1` [Compound 75, N-[(4-Cyanophenyl)methanesulfonyl]-1-(thiophen-2-yl)cyclohexane-1-carboxamide], at PYR1, the remaining activity at 50 µM was determined as 96.1% and the IC50 is > 50 µM. Moreover, at PYL1, the remaining activity at 50 µM is 95.5% and the IC50 was > 50 µM.

Regarding `N#Cc1ccc(CS(=O)(=O)NC(=O)C2(c3ccsc3)CCCCC2)cc1` [Compound 78, N-[(4-Cyanophenyl)methanesulfonyl]-1-(thiophen-3-yl)cyclohexane-1-carboxamide], on PYR1, the remaining activity at 50 µM turned out to be 90.9% and the IC50 is > 50 µM. At PYL1, the remaining activity at 50 µM turned out to be 95.6% and the IC50 was > 50 µM.

On to `N#Cc1ccc(CS(=O)(=O)NC(=O)C2(c3ccsc3)CCCCC2)cc1Br` [Compound 106, N-[(4-Cyano-3-bromophenyl)methanesulfonyl]-1-(thiophen-3-yl)cyclohexane-1-carboxamide], for which the figures for the remaining activity at 50 µM at PYR1 and on PYL1 were 98.9% and 94.3%, respectively. Further, the IC50 on PYR1 and at PYL1 was > 50 µM throughout.
